In patent publication US20250263370A1 (Tay Therapeutics Limited, priority 2022, published 2025):
“And” between values parts separate entries of the source, which are not always exact repeats. Identical values can stand only once.

Tested on: collagen-induced arthritis
Assay: Collagen-induced arthritis (CIA) model in rats: body weight, paw volume, clinical scores, clinical observations; on Average detailed clinical score, left hind limb: key of the grades not given here; on Average detailed clinical score, right hind limb: key of the grades not given here; on Detailed Clinical Scores, left forelimb: key of the grades not given here; on Detailed Clinical Scores, left hind limb: key of the grades not given here; on Detailed Clinical Scores, right forelimb: key of the grades not given here; on Detailed Clinical Scores, right hind limb: key of the grades not given here; on Detailed Clinical Scores, score: key of the grades not given here; on Detailed Clinical Scores: left forelimb: key of the grades not given here; on Detailed Clinical Scores: left hind limb: key of the grades not given here; on Detailed Clinical Scores: right forelimb: key of the grades not given here; on Detailed Clinical Scores: right hind limb: key of the grades not given here; on Detailed Clinical Scores: score: key of the grades not given here; on Mean overall clinical score ± SD: key of the grades not given here; on overall clinical score: key of the grades not given here
Details: for Mean animal paw volume ± SD: group mean; for Animal paw volume percent change: individual animals; for Average detailed clinical score, left forelimb / Average detailed clinical score, left hind limb / Average detailed clinical score, right forelimb / Average detailed clinical score, right hind limb / Average detailed clinical score, score / Mean overall clinical score ± SD / Detailed Clinical Scores, left forelimb / Detailed Clinical Scores, left hind limb / Detailed Clinical Scores, right forelimb / Detailed Clinical Scores, right hind limb / Detailed Clinical Scores, score / Overall clinical score / Detailed Clinical Scores: left forelimb / Detailed Clinical Scores: left hind limb / Detailed Clinical Scores: right forelimb / Detailed Clinical Scores: right hind limb / Detailed Clinical Scores: score: CIA rats; for Detailed Clinical Scores, left forelimb / Detailed Clinical Scores, left hind limb / Detailed Clinical Scores, right forelimb / Detailed Clinical Scores, right hind limb / Detailed Clinical Scores, score / Detailed Clinical Scores: left forelimb / Detailed Clinical Scores: left hind limb / Detailed Clinical Scores: right forelimb / Detailed Clinical Scores: right hind limb / Detailed Clinical Scores: score: individual animals ID 1-8; for Overall clinical score: individual animals #1-8
Method: Prior to be randomly placed in treatment groups, animals were weighed, and paw volume was measured. Once randomly assigned to treatment groups, on Day 0, animals in groups 2-9 were immunized by subcutaneous injection at the base of the tail.
The immunization comprised 100 μL of the CFA+Collagen emulsion (prepared according to the method in Experimental Method A). Animals in group one received no immunization. Seven days after the first injection, animals in groups 2-9 received a booster immunization comprising 200 μL of the IFA+Collagen emulsion (prepared according to the method in Experimental Method A).
Starting on Day 0, animals in group 1 and 2 were administered daily doses of the vehicle per os (P.O.) for 21 days. […] The twice daily doses for animals in groups 4-9 were 8 hours apart (e.g., the first dose at 8:00 AM and the second dose at 4:00 PM).
Body weight of all animals was recorded daily for the 21-day period. Blind clinical scores on all four limbs were conducted for all animals in the study. Animals were assessed prior to receiving their first dose of the compound or control, and scores for each limb were combined to a total daily score for each animal. Clinical score assessments were performed on Day 0, 6, 12, 13, 14, 15, 18, 19, and 21 (for a total of 9 daily scores).
Paw volume was recorded for each animal on Day 0, 6, 12, 13, 14, 15, 18, 19, and 21 (for a total of 9 measurements). To measure paw volume, animals were gently held with one hand while the hind paw was placed into a plethysmometer with the other hand. Lipid displacement by the paw was recorded and used to represent paw volume.
All data measured and recorded was analyzed using SPSS 16.0 software. Groups were compared using one-way ANOVA and significance was set at p<0.05.

CNC(=O)c1cc(C(=O)NC2CC2)cn(Cc2ccccc2)c1=O [GSK620]
Mean animal paw volume ± SD (Day 13, L paw): 1.38 mL
Animal paw volume percent change (Day 13, L paw): 5.12% and 1.52% and 12.65% and −0.73% and 4.01% and 2.25% and 4.56% and 3.33%
Mean animal paw volume ± SD (Day 13, R paw): 1.41 mL
Animal paw volume percent change (Day 13, R paw): 9.84% and 3.07% and 10.98% and 14.65% and 3.66% and 3.02% and 6.04% and 3.75%
Average detailed clinical score, left forelimb (Day 13): 0.00
Average detailed clinical score, left hind limb (Day 13): 0.00
Average detailed clinical score, right forelimb (Day 13): 0.00
Average detailed clinical score, right hind limb (Day 13): 0.13
Average detailed clinical score, score (Day 13): 0.13
Mean overall clinical score ± SD (Day 13): 0 ± 0
Detailed Clinical Scores, left forelimb (Day 13): 0
Detailed Clinical Scores, left hind limb (Day 13): 0
Detailed Clinical Scores, right forelimb (Day 13): 0
Detailed Clinical Scores, right hind limb (Day 13): 0 (7×) and 1
Detailed Clinical Scores, score (Day 13): 0 (7×) and 1
Overall clinical score (Day 13): 0 (7×) and 1
Mean animal paw volume ± SD (Day 14, L paw): 1.55 mL
Animal paw volume percent change (Day 14, L paw): 21.65% and 34.98% and 13.44% and −0.37% and 4.01% and 4.87% and 31.18% and 27.78%
Mean animal paw volume ± SD (Day 14, R paw): 1.67 mL
Animal paw volume percent change (Day 14, R paw): 37.01% and 14.18% and 12.55% and 54.58% and 4.40% and 3.77% and 49.81% and 36.70%
Average detailed clinical score, left forelimb (Day 14): 0.00
Average detailed clinical score, left hind limb (Day 14): 0.88
Average detailed clinical score, right forelimb (Day 14): 0.00
Average detailed clinical score, right hind limb (Day 14): 1.13
Average detailed clinical score, score (Day 14): 2.00
Mean overall clinical score ± SD (Day 14): 2 ± 2
Detailed Clinical Scores, left forelimb (Day 14): 0
Detailed Clinical Scores, left hind limb (Day 14): 1 and 2 (3×) and 0 (4×)
Detailed Clinical Scores, right forelimb (Day 14): 0
Detailed Clinical Scores, right hind limb (Day 14): 2 (3×) and 0 (4×) and 3
Detailed Clinical Scores, score (Day 14): 3 (2×) and 2 and 0 (3×) and 4 (2×)
Overall clinical score (Day 14): 3 (2×) and 2 and 0 (3×) and 4 (2×)
Mean animal paw volume ± SD (Day 15, L paw): 1.74 mL
Animal paw volume percent change (Day 15, L paw): 60.24% and 53.99% and 9.49%
Mean animal paw volume ± SD (Day 15, R paw): 1.86 mL
Animal paw volume percent change (Day 15, R paw): 61.02% and 59.00% and 7.84%
Average detailed clinical score, left forelimb (Day 15): 0.00
Average detailed clinical score, left hind limb (Day 15): 1.63
Average detailed clinical score, right forelimb (Day 15): 0.00
Average detailed clinical score, right hind limb (Day 15): 2.00
Average detailed clinical score, score (Day 15): 3.63
Mean overall clinical score ± SD (Day 15): 4 ± 2
Detailed Clinical Scores: left forelimb (Day 15): 0
Detailed Clinical Scores: left hind limb (Day 15): 3 (3×) and 0 (2×) and 1 (2×) and 2
Detailed Clinical Scores: right forelimb (Day 15): 0
Detailed Clinical Scores: right hind limb (Day 15): 3 (3×) and 0 (2×) and 4 and 1 and 2
Detailed Clinical Scores: score (Day 15): 6 (3×) and 0 and 4 (2×) and 1 and 2
Overall clinical score (Day 15): 6 (3×) and 0 and 4 (2×) and 1 and 2
Mean animal paw volume ± SD (Day 18, L paw): 2.48 mL
Animal paw volume percent change (Day 18, L paw): 113.78% and 92.78% and 88.54%
Mean animal paw volume ± SD (Day 18, R paw): 2.35 mL
Animal paw volume percent change (Day 18, R paw): 105.91% and 87.36% and 88.63%
Average detailed clinical score, left forelimb (Day 18): 0.00
Average detailed clinical score, left hind limb (Day 18): 3.88
Average detailed clinical score, right forelimb (Day 18): 0.00
Average detailed clinical score, right hind limb (Day 18): 3.38
Average detailed clinical score, score (Day 18): 7.25
Mean overall clinical score ± SD (Day 18): 7 ± 1
Detailed Clinical Scores: left forelimb (Day 18): 0
Detailed Clinical Scores: left hind limb (Day 18): 4 (7×) and 3
Detailed Clinical Scores: right forelimb (Day 18): 0
Detailed Clinical Scores: right hind limb (Day 18): 4 (6×) and 0 and 3
Detailed Clinical Scores: score (Day 18): 8 (6×) and 4 and 6
Overall clinical score (Day 18): 8 (6×) and 4 and 6
Mean animal paw volume ± SD (Day 19, L paw): 2.54 mL
Animal paw volume percent change (Day 19, L paw): 112.99% and 92.78%
Mean animal paw volume ± SD (Day 19, R paw): 2.36 mL
Animal paw volume percent change (Day 19, R paw): 103.54% and 88.12%
Average detailed clinical score, left forelimb (Day 19): 0.75
Average detailed clinical score, left hind limb (Day 19): 3.63
Average detailed clinical score, right forelimb (Day 19): 0.25
Average detailed clinical score, right hind limb (Day 19): 3.00
Average detailed clinical score, score (Day 19): 7.63
Mean overall clinical score ± SD (Day 19): 8 ± 2
Detailed Clinical Scores: left forelimb (Day 19): 1 (6×) and 0 (2×)
Detailed Clinical Scores: left hind limb (Day 19): 4 (5×) and 3 (3×)
Detailed Clinical Scores: right forelimb (Day 19): 0 (6×) and 1 (2×)
Detailed Clinical Scores: right hind limb (Day 19): 4 (3×) and 3 (4×) and 0
Detailed Clinical Scores: score (Day 19): 9 (2×) and 10 and 6 and 5 and 7 (2×) and 8
Overall clinical score (Day 19): 9 (2×) and 10 and 6 and 5 and 7 (2×) and 8
Mean animal paw volume ± SD (Day 21, L paw): 2.53 mL
Animal paw volume percent change (Day 21, L paw): 112.99% and 90.49%
Mean animal paw volume ± SD (Day 21, R paw): 2.35 mL
Animal paw volume percent change (Day 21, R paw): 106.69% and 86.59%
Average detailed clinical score, left forelimb (Day 21): 0.88
Average detailed clinical score, left hind limb (Day 21): 3.63
Average detailed clinical score, right forelimb (Day 21): 0.25
Average detailed clinical score, right hind limb (Day 21): 3.13
Average detailed clinical score, score (Day 21): 7.88
Mean overall clinical score ± SD (Day 21): 8 ± 2
Detailed Clinical Scores: left forelimb (Day 21): 1 (5×) and 2 and 0 (2×)
Detailed Clinical Scores: left hind limb (Day 21): 4 (5×) and 3 (3×)
Detailed Clinical Scores: right forelimb (Day 21): 0 (6×) and 1 (2×)
Detailed Clinical Scores: right hind limb (Day 21): 4 (3×) and 3 (4×) and 1
Detailed Clinical Scores: score (Day 21): 9 (2×) and 11 and 6 (2×) and 7 (2×) and 8
Overall clinical score (Day 21): 9 (2×) and 11 and 6 (2×) and 7 (2×) and 8
